Consider four molecules from ChEMBL document CHEMBL4007424, “Design and Synthesis of Enantiomerically Pure Decahydroquinoxalines as Potent and Selective κ-Opioid Receptor Agonists with Anti-Inflammatory Activity in Vivo” (J Med Chem, 2017).

The nature of data set [1]: Plasma concentration in Wistar Han rat at 5 mg/kg, iv measured 1 hr post compound administration. It counts as ADME, organism-based.
Data set [2] deals with Rattus norvegicus. As to the kind of experiment: Toxicity in Wistar Han rat assessed as flat posture at 5 mg/kg, iv after 0.25 hrs. It is filed as organism-based. To be noted: in vivo.
Data set [3] concerns Rattus norvegicus. As to the kind of experiment: Toxicity in Wistar Han rat assessed as severe lethargy at 5 mg/kg, iv after 1 hr. To be noted: in vivo. It counts as organism-based.
Data set [4] has as its system Rattus norvegicus. As to the kind of experiment: Toxicity in Wistar Han rat assessed as moderate extension spasms of the tail at 5 mg/kg, iv after 1 hr. It counts as organism-based. Particulars: in vivo.
For data set [5], the system named is Rattus norvegicus. As to the kind of experiment: Toxicity in Wistar Han rat assessed as moderate extension spasms of the tail at 5 mg/kg, iv after 0.25 hrs. It is filed as organism-based. Particulars: in vivo.
A short description of data set [6]: Drug level in Wistar Han rat brain at 5 mg/kg, iv measured 1 hr post compound administration. It counts as ADME, organism-based. Particulars: read-out: Drug uptake.
The nature of data set [7]: Ratio of drug level in brain to plasma in Wistar Han rat at 5 mg/kg, iv after 1 hr. It counts as ADME, organism-based. Particulars: read-out: BPR.
Data set [8] can be described thus: Plasma concentration in Wistar Han rat at 5 mg/kg, iv measured 0.25 hrs post compound administration. It is filed as ADME, organism-based.
The subject of data set [9] is Rattus norvegicus. As to the kind of experiment: Toxicity in Wistar Han rat assessed as severe cramped posture at 5 mg/kg, iv after 1 hr. It counts as organism-based. Particulars: in vivo.
Data set [10] relates to Rattus norvegicus. As to the kind of experiment: Toxicity in Wistar Han rat assessed as severe lethargy at 5 mg/kg, iv after 0.25 hrs. It counts as organism-based. Particulars: in vivo.
Data set [11] concerns Rattus norvegicus. As to the kind of experiment: Toxicity in Wistar Han rat assessed as flat posture at 5 mg/kg, iv after 1 hr. It is filed as organism-based. Particulars: in vivo.
For data set [12], the system named is Rattus norvegicus. As to the kind of experiment: Toxicity in Wistar Han rat assessed as severe cramped posture at 5 mg/kg, iv after 0.25 hrs. It is filed as organism-based. Particulars: in vivo.
Data set [13] deals with Rattus norvegicus. As to the kind of experiment: Toxicity in Wistar Han rat assessed as moderate tonic spasms at 5 mg/kg, iv after 1 hr. To be noted: in vivo. It is filed as organism-based.
Data set [14] concerns Rattus norvegicus. As to the kind of experiment: Toxicity in Wistar Han rat assessed as moderate tonic spasms at 5 mg/kg, iv after 0.25 hrs. It counts as organism-based. To be noted: in vivo.
The subject of data set [15] is Mus musculus. As to the kind of experiment: Antiinflammatory activity in arachidonic acid-induced ear dermatitis ICR mouse model assessed as reduction in ear swelling at 3 mg administered twice tropically 30 mins prior and 15 mins after arachidonic acid addition measured 60 mins post arachidonic acid challenge relative to control. It counts as functional.
Data set [16] in a line: Displacement of [3H]DPDPE from delta-type opioid receptor in guinea pig brain membranes after 120 mins by solid scintillation counting. It is filed as cell membranes, Cavia porcellus, Membrane. (In general: Loss of bound radioactivity is the signal in a displacement assay; it reports binding, not function.)
Data set [17] concerns Mus musculus. As to the kind of experiment: Antiinflammatory activity in arachidonic acid-induced ear dermatitis ICR mouse model assessed as reduction in ear swelling at 0.1 mg administered twice tropically 30 mins prior and 15 mins after arachidonic acid addition measured 60 mins post arachidonic acid challenge relative to control. It counts as functional.
Data set [18] deals with Mus musculus. As to the kind of experiment: Toxicity in arachidonic acid-induced ear dermatitis ICR mouse model assessed as induction of modest to severe behaviour depression at 0.1 mg to 3 mg administered twice tropically 30 mins prior and 15 mins after arachidonic acid addition measured 60 mins post arachidonic acid challenge. Particulars: in vivo, topical_or_ocular, 1 h.

Data set [19] deals with Mus musculus. As to the kind of experiment: Antiinflammatory activity in arachidonic acid-induced ear dermatitis ICR mouse model assessed as reduction in ear swelling at 0.3 mg administered twice tropically 30 mins prior and 15 mins after arachidonic acid addition measured 60 mins post arachidonic acid challenge relative to control. It is filed as functional.
For data set [20], the system named is Mus musculus. As to the kind of experiment: Antiinflammatory activity in arachidonic acid-induced ear dermatitis ICR mouse model assessed as reduction in ear swelling at 1 mg administered twice tropically 30 mins prior and 15 mins after arachidonic acid addition measured 60 mins post arachidonic acid challenge relative to control. It counts as functional.
Data set [21] concerns the target Kappa-type opioid receptor (Homo sapiens, UniProt P41145). As to the kind of experiment: Agonist activity at recombinant human kappa-type opioid receptor expressed in HEK293 cells after 30 mins by [35S]GTPgammaS binding assay. It is filed as functional, cell-based. In general terms: GTPγS resists hydrolysis and so accumulates on activated G proteins.
The target of data set [22] is Kappa-type opioid receptor (Cavia porcellus, UniProt P41144). As to the kind of experiment: Displacement of [3H]U-69,593 from kappa-type opioid receptor in guinea pig brain membranes after 120 mins by solid scintillation counting. It counts as cell membranes, Membrane.
Data set [23] is described as follows: Lipophilicity, logD of the compound at pH 7.4 by LC/MS analysis. It counts as physicochemical. To be noted: buffer.
In data set [24] the target is Mu-type opioid receptor (Cavia porcellus, UniProt P97266). As to the kind of experiment: Displacement of [3H]DAMGO from mu-type opioid receptor in guinea pig brain membranes after 120 mins by solid scintillation counting. It is filed as cell membranes, Membrane.
In data set [25] the test system is Mus musculus. As to the kind of experiment: Antiinflammatory activity in tropically administered oxazolone-induced delayed type hypersensitivity BALB/c mouse model assessed as reduction in CD8+ cells per 0.1 mm2 at 2.5 mg administered 3 hrs prior to oxazolone challenge on day 7 to 12 post sensitization followed by re-administration of compound on day 13 to 18 without oxazolone challenge measured on day 19 by DAPI-staining based fluorescence microscopic analysis relative to control. It counts as functional.

Data set [26] relates to Mus musculus. As to the kind of experiment: Antiinflammatory activity in tropically administered oxazolone-induced delayed type hypersensitivity BALB/c mouse model assessed as reduction in CD4+ cells per 0.1 mm2 at 2.5 mg administered 3 hrs prior to oxazolone challenge on day 7 to 12 post sensitization followed by re-administration of compound on day 13 to 18 without oxazolone challenge measured on day 19 by DAPI-staining based fluorescence microscopic analysis relative to control. It counts as functional.

The test system of data set [27] is Mus musculus. As to the kind of experiment: Antiinflammatory activity in arachidonic acid-induced ear dermatitis ICR mouse model assessed as reduction in ear swelling at 3 mg administered tropically 30 mins prior and 15 min after arachidonic acid addition measured 60 mins post arachidonic acid challenge relative to control. It is filed as functional.

Chain of Kappa-type opioid receptor (Cavia porcellus, UniProt P41144) (P41144 whole entry): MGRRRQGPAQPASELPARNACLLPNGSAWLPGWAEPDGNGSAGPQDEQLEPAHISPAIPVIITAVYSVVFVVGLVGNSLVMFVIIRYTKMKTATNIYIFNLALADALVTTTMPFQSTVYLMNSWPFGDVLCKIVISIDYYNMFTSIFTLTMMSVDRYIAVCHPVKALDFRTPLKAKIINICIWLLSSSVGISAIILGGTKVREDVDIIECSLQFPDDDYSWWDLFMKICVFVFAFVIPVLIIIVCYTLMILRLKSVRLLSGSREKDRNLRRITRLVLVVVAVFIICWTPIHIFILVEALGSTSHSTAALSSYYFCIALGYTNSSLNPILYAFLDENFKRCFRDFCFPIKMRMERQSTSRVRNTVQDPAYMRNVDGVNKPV
Chain of Kappa-type opioid receptor (Homo sapiens, UniProt P41145) (P41145 whole entry): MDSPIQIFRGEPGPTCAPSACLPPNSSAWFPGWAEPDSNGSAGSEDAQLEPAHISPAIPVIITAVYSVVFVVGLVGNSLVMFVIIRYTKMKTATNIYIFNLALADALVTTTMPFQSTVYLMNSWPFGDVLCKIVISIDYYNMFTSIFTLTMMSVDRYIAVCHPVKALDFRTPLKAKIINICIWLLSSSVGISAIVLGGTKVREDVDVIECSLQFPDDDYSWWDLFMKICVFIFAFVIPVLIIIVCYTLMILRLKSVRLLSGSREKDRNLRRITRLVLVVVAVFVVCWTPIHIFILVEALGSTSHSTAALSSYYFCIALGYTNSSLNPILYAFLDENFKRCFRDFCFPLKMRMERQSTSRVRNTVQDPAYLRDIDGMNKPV
Chain of Mu-type opioid receptor (P97266 whole entry): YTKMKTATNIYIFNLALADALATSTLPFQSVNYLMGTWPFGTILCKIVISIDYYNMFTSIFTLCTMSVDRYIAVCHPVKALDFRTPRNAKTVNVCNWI

As to `COC(=O)N1CCN(C(=O)Cc2ccc(F)c(Cl)c2)[C@@H]2[C@@H](N3CC[C@H](F)C3)CCC[C@@H]21.Cl`, the concentration at 1 h came out at 811 ng/mL in data set [1] and 86.6 ng/g in [6]. Further, the Activity result in data set [2], in [3], in [4], in data set [5], in [9] and in data set [10] was “Toxic” in each case. Also, the Activity entry in [11], in data set [12], in data set [13] and in data set [14] was “Toxic” each time. The Kp at 1 h in data set [7] was 0.11. In [8], this molecule returned a concentration at 0.25 h of 3070 ng/mL.
With `COC(=O)N1CCN(C(=O)Cc2ccc(F)c(Cl)c2)[C@@H]2[C@@H](N3CC[C@H](F)C3)CCC[C@@H]21`, the “inhibition (INH)” value in data set [15] is on record as 60%; in data set [17], 25%; in data set [19], 40%; in data set [20] it was 66%. Besides, the Ki – broadly, a dissociation constant, usually derived from enzyme kinetics or from competition with a known ligand – in data set [16] was 74 nM; in [22], 0.56 nM. Also, the Activity entry in data set [18] is reported as “Toxic”. The EC50 – broadly, the midpoint of the concentration-response curve – in data set [21] is 0.4 nM.
For the molecule `CS(=O)(=O)N1CCN(C(=O)Cc2ccc(Cl)c(Cl)c2)[C@@H]2[C@@H](N3CC[C@H](O)C3)CCC[C@@H]21`, the “inhibition (INH)” value in data set [15] was 56%; in data set [17] it was -4%; in data set [19], -4%; in data set [25], 45%; in data set [20], 32%; in data set [26] it was 45%. In addition, the Ki in data set [16] was found to be 367 nM; in data set [24], 336 nM; in data set [22], 0.63 nM. Also, in [23], the logD – broadly, the decadic logarithm of the distribution of all forms, ionised or not, between an organic phase and buffer at a given pH – came to 2.41. In data set [21], the EC50 was 1.8 nM.
With `COc1ccc2c(c1)c(CC(=O)O)c(C)n2C(=O)c1ccc(Cl)cc1` [INDOMETHACIN], the “inhibition (INH)” value in [15] is on record as 38 - 65%; in data set [17], 38 - 65%; in data set [27], 38%.
